Test results as given in PubChem BioAssay AID330 (DTP/NCI, 2004).
Where “and” joins values, the source holds several entries; their conditions need not be identical. Equal values may be shown once. Toxic doses and inconclusive results are not listed. Rule for the calls: active = survival T/C of 150% or more; inactive = T/C below 125% in these data.

System: P388 leukemia ip, CD2F1 mice, survival T/C
Assay: NCI In Vivo Anticancer Drug Screen. Data for tumor model P388 Leukemia (intraperitoneal) in CD2F1 (CDF1) mice
Details: endpoint: median survival time, higher = longer survival
Method in brief: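 Mice carrying the transplanted tumor received test compound or vehicle. Survival was recorded in each group, and the value is the treated-group measurement divided by that of the vehicle-treated control group.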

[1] = dose: 50.0 mg/kg/injection, schedule: Q01DX009 (ip), vehicle: Klucel (hydroxypropylcellulose) (HPC)
[2] = dose: 100.0 mg/kg/injection, schedule: Q01DX009 (ip), vehicle: Klucel (hydroxypropylcellulose) (HPC)
[3] = dose: 200.0 mg/kg/injection, schedule: Q01DX009 (ip), vehicle: Klucel (hydroxypropylcellulose) (HPC)
[4] = dose: 12.5 mg/kg/injection, schedule: Q01DX009 (ip), vehicle: saline with Tween-80
[5] = dose: 25.0 mg/kg/injection, schedule: Q01DX009 (ip), vehicle: saline with Tween-80
[6] = dose: 60.0 mg/kg/injection, schedule: Q01DX005 (ip), vehicle: saline with Tween-80
[7] = dose: 120.0 mg/kg/injection, schedule: Q01DX005 (ip), vehicle: saline with Tween-80
[8] = dose: 240.0 mg/kg/injection, schedule: Q01DX005 (ip), vehicle: saline with Tween-80
[9] = dose: 50.0 mg/kg/injection, schedule: Q01DX005 (ip), vehicle: Klucel (hydroxypropylcellulose) (HPC)
[10] = dose: 100.0 mg/kg/injection, schedule: Q01DX005 (ip), vehicle: Klucel (hydroxypropylcellulose) (HPC)
[11] = dose: 200.0 mg/kg/injection, schedule: Q01DX005 (ip), vehicle: Klucel (hydroxypropylcellulose) (HPC)
[12] = dose: 6.25 mg/kg/injection, schedule: Q01DX009 (ip), vehicle: saline with Tween-80
[13] = dose: 100.0 mg/kg/injection, schedule: Q04DX003 (ip), vehicle: Klucel (hydroxypropylcellulose) (HPC)
[14] = dose: 200.0 mg/kg/injection, schedule: Q04DX003 (ip), vehicle: Klucel (hydroxypropylcellulose) (HPC)
[15] = dose: 400.0 mg/kg/injection, schedule: Q04DX003 (ip), vehicle: Klucel (hydroxypropylcellulose) (HPC)
[16] = dose: 12.5 mg/kg/injection, schedule: Q01DX009 (ip), vehicle: saline
[17] = dose: 25.0 mg/kg/injection, schedule: Q01DX009 (ip), vehicle: saline
[18] = dose: 50.0 mg/kg/injection, schedule: Q01DX009 (ip), vehicle: saline
[19] = dose: 100.0 mg/kg/injection, schedule: Q01DX009 (ip), vehicle: saline
[20] = dose: 200.0 mg/kg/injection, schedule: Q01DX009 (ip), vehicle: saline

Measured: T/C

COCOCC(N)CS(C)=O (stereo not given)
inactive: dose: 50.0 mg/kg/injection, schedule: Q01DX005 (ip), vehicle: water 105 % of control | dose: 100.0 mg/kg/injection, schedule: Q01DX005 (ip), vehicle: water 97 % of control | dose: 200.0 mg/kg/injection, schedule: Q01DX005 (ip), vehicle: water 102 % of control

CCCCCCCCCCCCCCCCOC(=O)c1ccc(O)cc1
inactive: [1] 95 % of control | [2] 92 % of control | [3] 103 % of control

Cn1c2c(c(=O)n(C)c1=O)CS(=O)c1ccccc1N2 (stereo not given)
inactive: dose: 25.0 mg/kg/injection, schedule: Q01DX005 (ip), vehicle: suspension in saline 103 % of control | dose: 50.0 mg/kg/injection, schedule: Q01DX005 (ip), vehicle: suspension in saline 96 % of control | dose: 100.0 mg/kg/injection, schedule: Q01DX005 (ip), vehicle: suspension in saline 96 % of control | dose: 200.0 mg/kg/injection, schedule: Q01DX005 (ip), vehicle: suspension in saline 97 % of control

CCOc1n[nH]c(-c2ccc(Cl)cc2Cl)n1
inactive: dose: 100.0 mg/kg/injection, schedule: Q01DX001 (ip), vehicle: Klucel (hydroxypropylcellulose) (HPC) 102 % of control | dose: 200.0 mg/kg/injection, schedule: Q01DX001 (ip), vehicle: Klucel (hydroxypropylcellulose) (HPC) 100 % of control | dose: 400.0 mg/kg/injection, schedule: Q01DX001 (ip), vehicle: Klucel (hydroxypropylcellulose) (HPC) 101 % of control

CCOC(=O)C1CC(=O)C1C(=O)OCC (stereo not given)
inactive: [4] 104 % of control | [5] 103 % of control | dose: 50.0 mg/kg/injection, schedule: Q01DX009 (ip), vehicle: saline with Tween-80 100 % of control | dose: 100.0 mg/kg/injection, schedule: Q01DX009 (ip), vehicle: saline with Tween-80 100 % of control | dose: 200.0 mg/kg/injection, schedule: Q01DX009 (ip), vehicle: saline with Tween-80 101 % of control

O=c1oc2ccccc2cc1-n1nnc2cc([N+](=O)[O-])ccc21
inactive: [6] 91 % of control | [7] 89 % of control | [8] 99 % of control

O=C(O)CN(CCN1CC(=O)OC(=O)C1)CCN1CC(=O)OC(=O)C1
inactive: dose: 60.0 mg/kg/injection, schedule: Q01DX005 (ip), vehicle: saline 102 % of control | dose: 120.0 mg/kg/injection, schedule: Q01DX005 (ip), vehicle: saline 97 % of control

CCN1C(=O)C2C3C=CC(C2C1=O)C1C2C(=O)N(CC)C(=O)C2C31 (stereo not given)
inactive: dose: 100.0 mg/kg/injection, schedule: Q01DX001 (ip), vehicle: suspension in saline 99 % of control | dose: 200.0 mg/kg/injection, schedule: Q01DX001 (ip), vehicle: suspension in saline 96 % of control | dose: 400.0 mg/kg/injection, schedule: Q01DX001 (ip), vehicle: suspension in saline 100 % of control

C[CH2][Sn]1([Cl])[O]CCNCC[O]1
inactive: dose: 25.0 mg/kg/injection, schedule: Q01DX005 (ip), vehicle: Klucel (hydroxypropylcellulose) (HPC) 103 % of control | [9] 103 % of control and 113 % of control | [10] 116 % of control | [11] 122 % of control

CN(C)c1nc(NC(=O)NC(=O)c2c(F)cccc2F)nc(N(C)C)n1
inactive: [12] 101 % of control | [4] 111 % of control | [5] 104 % of control

Nc1c(Cl)c(Cl)cc(Cl)c1Cl
inactive: dose: 100.0 mg/kg/injection, schedule: Q04DX003 (ip), vehicle: saline with Tween-80 100 % of control | dose: 200.0 mg/kg/injection, schedule: Q04DX003 (ip), vehicle: saline with Tween-80 104 % of control | dose: 400.0 mg/kg/injection, schedule: Q04DX003 (ip), vehicle: saline with Tween-80 104 % of control

CCC1(c2ccccc2)CCCC/C1=N/Nc1ccc([N+](=O)[O-])cc1[N+](=O)[O-] (stereo not given)
inactive: [13] 91 % of control | [14] 92 % of control | [15] 99 % of control

N#CC1=C(O)/C(=C\c2ccc(Cl)c(Cl)c2)N=C1N
inactive: dose: 50.0 mg/kg/injection, schedule: Q01DX005 (ip), vehicle: saline with Tween-80 89 % of control | dose: 100.0 mg/kg/injection, schedule: Q01DX005 (ip), vehicle: saline with Tween-80 90 % of control | dose: 200.0 mg/kg/injection, schedule: Q01DX005 (ip), vehicle: saline with Tween-80 97 % of control

O=c1c2ccccc2c2sc3c4ccccc4c(=O)c3c12
inactive: dose: 60.0 mg/kg/injection, schedule: Q01DX005 (ip), vehicle: Klucel (hydroxypropylcellulose) (HPC) 104 % of control | dose: 120.0 mg/kg/injection, schedule: Q01DX005 (ip), vehicle: Klucel (hydroxypropylcellulose) (HPC) 99 % of control | dose: 240.0 mg/kg/injection, schedule: Q01DX005 (ip), vehicle: Klucel (hydroxypropylcellulose) (HPC) 97 % of control

O=[N+]([O-])c1c(Sc2ncccn2)ncnc1Sc1ncccn1
inactive: dose: 3.12 mg/kg/injection, schedule: Q01DX009 (ip), vehicle: saline with Tween-80 105 % of control | [12] 115 % of control | [4] 113 % of control | [16] 114 % of control | [17] 114 % of control | [18] 108 % of control

O=C(CCN1CCOCC1)c1ccccc1
inactive: [16] 100 % of control | [17] 101 % of control | [18] 100 % of control | [19] 104 % of control | [20] 103 % of control

CCN(CC)C(=O)C(F)Cl (stereo not given)
inactive: [6] 88 % of control | [7] 88 % of control | [8] 95 % of control

CCCCCCCCCC(=O)C(=O)c1ccc(O)cc1O
inactive: [1] 94 % of control | [2] 93 % of control | [3] 94 % of control

COn1nnc2ccc([N+](=O)[O-])cc21
inactive: dose: 50.0 mg/kg/injection, schedule: Q01DX001 (ip), vehicle: saline with Tween-80 99 % of control | dose: 100.0 mg/kg/injection, schedule: Q01DX001 (ip), vehicle: saline with Tween-80 101 % of control | dose: 200.0 mg/kg/injection, schedule: Q01DX001 (ip), vehicle: saline with Tween-80 92 % of control

Nc1cccc2c1C(=O)c1ccc(Cl)cc1C2=O
inactive: [9] 99 % of control | [10] 94 % of control | [11] 99 % of control

Nc1ccc2c(c1)C1C(C3C2C2(Cl)C(Cl)=C(Cl)C3(Cl)C2(Cl)Cl)C2(Cl)C(Cl)=C(Cl)C1(Cl)C2(Cl)Cl (stereo not given)
inactive: [16] 97 % of control | [17] 109 % of control | [18] 100 % of control and 95 % of control | [19] 100 % of control | [20] 98 % of control

O=C(O)C1C2C=CC(C1C(=O)O)N(/C=C/c1ccccc1)C2=O (stereo not given)
inactive: [13] 102 % of control | [14] 91 % of control | [15] 90 % of control

COC(=O)C1CC23C4=C(CCC41)CCC1CN4CC(C)C(CC(OC(C)=O)C12COC(C)=O)C43O (stereo not given)
inactive: dose: 0.78 mg/kg/injection, schedule: Q01DX009 (ip), vehicle: suspension in saline 108 % of control | dose: 1.56 mg/kg/injection, schedule: Q01DX009 (ip), vehicle: suspension in saline 104 % of control | dose: 3.13 mg/kg/injection, schedule: Q01DX009 (ip), vehicle: suspension in saline 100 % of control | dose: 6.25 mg/kg/injection, schedule: Q01DX009 (ip), vehicle: suspension in saline 104 % of control
